Measurements taken from patent US11406642B2, “DNP and DNP prodrug treatment of neuromuscular, neurodegenerative, autoimmune, developmental, traumatic brain injury, concussion, dry eye disease, hearing loss and/or metabolic diseases” (priority 2016, dated 2022).
Read-outs that look alike come from different tables or passages of the source.

Assays:
[1] = Plasma pharmacokinetics of II-38 and 2,4-DNP released from II-38; format: in vivo, Sprague-Dawley male rats; settings: for half-life: read-out: t1/2 of II-38; for bioavailability: read-out: % F of II-38
Description: The oral bioavailability and plasma pharmacokinetic (PK) properties of II-38 prodrug and 2,4-DNP-released from II-38 prodrug was investigated in Sprague-Dawley (S-D) male rats after a single i.v. injection of II-38 at 1.6 mg/kg (eq. to 1 mg/kg 2,4-DNP) and an oral dose eq. to 5, 25 and 50 mg/kg of 2,4-DNP. Blood samples were taken up to […].
All procedures that involved the use of rats were conducted in accordance with the guidelines set forth by the University of Arkansas for Medical Sciences (UAMS) Institutional Animal Care and Use Committee established by the National Institutes of Health's Guide for the Care and Use of Laboratory Animals (1996). Male Sprague-Dawley rats weighing 250-300 grams were housed three per cage with ad libitum access to food and water in the Division of Laboratory Animal Resources, UAMS. Rats were anesthetized with isofluorane (2-5%)/oxygen (1.5-2.0 L/min) and surgically implanted with cannulae in the jugular (i.v. dosing) and femoral (blood sampling) veins. […] Following appropriate evidence of successful recovery from surgery, IV or oral dosing was performed and blood samples (0.15 mL) were collected at 0, 5, 15, 30, 45, 60, 120, 240 and 480 min. Plasma samples were prepared and analysis was run using a LC/MS/MS spectrometry.
For the i.v. injection, a total volume of 0.8 mL/kg was used at a dose of 1.6 mg/kg (eq. to 1 mg/kg of 2,4-DNP). For the oral route, stock solutions of II-38 containing eq. to 1, 5 and 25 mg/mL of 2,4-DNP were prepared and administered to rats at final doses eq. to 1, 5 and 25 mg/kg of 2,4-DNP, respectively. An oral dose of 8 mg/kg of II-38 (eq. to 5 mg/kg) was dissolved in a phosphate-saline buffer solution, pH 7.4 containing 5% DMSO and 20% PEG-400, while a dose of 40 mg/kg (eq. to 25 mg/kg) was formulated with 0.5% methyl cellulose (methocel) containing 1% DMSO. A high dose of II-38 (eq. 50 mg/kg) was formulated with water containing 1% DMSO and 40% PEG-400. Because of the different vehicles used in formulations of II-38, a dose eq. to 25 mg/kg of 2,4-DNP was repeated using a vehicle consisting of DMSO, PEG-400, and water (1%: 40%: 59%). The later dose was utilized for comparison of PK data of 2,4-DNP-released from II-38 for differences in formulations.
Jugular and femoral vein-catheterized Sprague-Dawley male rats (weights 250-300 g, n=4) were treated with II-38 at a single oral dose of 8, 40 and 80 mg/kg (eq. to 5, 25 and 50 mg/kg of 2,4-DNP, respectively) or injected a single i.v. dose of 1.6 mg/kg of II-38 (eq. to 1 mg/kg 2,4-DNP, n=2). Blood samples (0.15 mL) were collected at 0, 5, 15, 30, 45, 60, 120, 240 and 480 min. Plasma samples were prepared and 2,4-DNP, II-38 and 2,4-DNP-released from II-38 concentrations were quantitated using the LC/MS/MS spectrometry assay method described below.
To isolate the analytes from rat plasma, 50 μL of control or treated plasma fortified with 10 μL of 2,4-DNP-d3 (10 μg/mL) as an internal standard to which 0.3 mL of methanol followed by 0.3 mL of acetonitrile was added. The mixture was vortex-mixed for 30 s and centrifuged for 10 min at 10,000 rpm at room temperature. The supernatant was transferred into 5 mL glass tubes and evaporated to dryness at 37° C. under nitrogen gas. The pellet was reconstituted with 50 μL of acetonitrile, vortex-mixed for 30 sec, followed by sonication for 1 min. Following centrifugation at 1000 rpm for 10 min at room temperature, 5 μL of the supernatant was then injected onto the column, and analytes were quantified by a LC/MS/MS spectrometry.
1—Plasma concentrations of 2,4-DNP after a single i.v. injection of 2,4-DNP of 1 mg/kg or 5 mg/kg oral administration; 2—Plasma concentrations of II-38 and 2,4-DNP-released from II-38 after an i.v. injection 1.6 mg/kg of II-38 eq. to 1 mg/kg of 2,4-DNP or an oral dose of 8, 40 and 80 mg/kg of II-38 eq. to 5, 25 and 50 mg/kg of 2,4-DNP, respectively. […]

[2] = Stability in human plasma; format: in vitro ADME; settings: 80% human plasma, 37° C.
Description: Plasma: Stability in rat and human plasma (37° C.)
HPLC analysis was carried out on an Agilent 1200 Infinity Series Quatpump, equipped with a photodiode array detector and a computer integrating apparatus. An Inertsil ODS-3 column, C18, 5 μm, 4.6×50 mm (GL Science Inc. Japan) protected with a guard column: Alltima C18, 5 μm, 4.6×7.5 mm (Grace Discovery Sciences, IL, USA) was used as the stationary phase. An isocratic method with a mobile phase consisting of water/acetonitrile (70:30) containing 0.05% formic acid in each was used. A flow rate of 0.9 mL/min was used and detection was carried out at a UV wavelength of 250 nm.
Formulation of II-38 in human plasma: to prepare 1 mg/mL of II-38, 2.3 mg of II-38 was formulated in DMSO (5%) and added slowly and gradually to a total volume of 2.185 mL of premixed human plasma (80%+PBS 15%, see Table 6) in a Franz cell diffusion chamber preheated to 37° C. The solution was mixed for a min every half an hour using magnetic stirrer. Samples of 20 μL (20 μg/mL of II-38) were collected at 0, 0.5, 1, 2, 4, 6 and 8 h. Each sample was mixed with acetonitrile QS to 1 mL, vortex-mixed for 30 sec and centrifuged at 10,000 rpm at room temp. A volume of 10 μL of the supernatant was injected into the HPLC spectrometer.

[3] = male, Sprague-Dawley, rat, in vivo, iv, 1.6 mg/kg, single i.v. injection of II-38 1.6 mg/kg (eq. to 1 mg/kg 2,4-DNP), n = 2
[4] = male, Sprague-Dawley, rat, in vivo, po, 5 mg/kg, oral II-38 eq. to 5 mg/kg of 2,4-DNP
[5] = male, Sprague-Dawley, rat, in vivo, po, 25 mg/kg, oral II-38 eq. to 25 mg/kg of 2,4-DNP, PEG-400
[6] = male, Sprague-Dawley, rat, in vivo, po, 25 mg/kg, oral II-38 eq. to 25 mg/kg of 2,4-DNP, methocel
[7] = male, Sprague-Dawley, rat, in vivo, po, 50 mg/kg, oral II-38 eq. 50 mg/kg of 2,4-DNP

In the case of `O=[N+]([O-])c1ccc(O)c([N+](=O)[O-])c1` [2,4-DNP, 2,4-dinitrophenol], the “fold increased level of 2,4-DNP after oral 2,4-DNP compared to 2,4-DNP released from II-38” value (“fold increased level of 2,4-DNP” for short) ([1]; 2,4-DNP 5 mg/kg oral vs II-38 oral eq. to 5 mg/kg) is reported as “approximately 12.0 fold”, the “fold increased level of 2,4-DNP” value ([1]; 2,4-DNP 5 mg/kg oral vs II-38 oral eq. to 25 mg/kg (PEG-400)) is reported as ~3.4 fold and the “fold increased level of 2,4-DNP” value ([1]; 2,4-DNP 5 mg/kg oral vs II-38 oral eq. to 25 mg/kg (methocel)) is reported as ~2.2 fold. For the same compound, the “fold increased level of 2,4-DNP” value ([1]; 2,4-DNP 5 mg/kg oral vs II-38 oral eq. to 50 mg/kg) was ~1.4 fold.
`O=C(Oc1ccc([N+](=O)[O-])cc1[N+](=O)[O-])N1CCOCC1` [II-38, 2,4-Dinitrophenyl morpholine-4-carboxylate] showed an AUC [1, 3] of 8600 ng·h/mL, a Cmax [1, 3] of 900 ± 50 ng/mL and a half-life [1, 3] of 413 ± 65.3 min. It also gave a clearance ([1]; male, Sprague-Dawley, rat, in vivo, iv, single i.v. injection of II-38 1.6 mg/kg (eq. to 1 mg/kg 2,4-DNP), n = 2, read-out: Cl of II-38) of 3.1 ± 0.3 mL/min/kg, a Vd ([1]; male, Sprague-Dawley, rat, in vivo, iv, single i.v. injection of II-38 1.6 mg/kg (eq. to 1 mg/kg 2,4-DNP), n = 2, read-out: Vss of II-38) of 1.86 ± 0.101 L/kg and an AUC [1, 4] of 15000 ng·h/mL. For the same compound, the Cmax [1, 4] was 1100 ± 200 ng/mL, the Tmax [1, 4] was 2.19 h and the bioavailability [1, 4] was 44.8 ± 4.4%. The half-life [1, 4] was 913 ± 420 min, the AUC [1, 5] was 14600 ng·h/mL and the Cmax [1, 5] was 2410 ± 300 ng/mL. The Tmax [1, 5] was 1.5 h, the bioavailability [1, 5] was 21.3 ± 0.9% and the half-life [1, 5] was 445 ± 184 min. For the same compound, the AUC [1, 6] was 18400 ng·h/mL, the Cmax [1, 6] was 1800 ± 300 ng/mL and the Tmax [1, 6] was 0.458 h. It also gave a bioavailability [1, 6] of 31.6 ± 1.2%, a half-life [1, 6] of 662 ± 252 min and an AUC [1, 7] of 24300 ng·h/mL. The Cmax [1, 7] was 1900 ± 600 ng/mL, the Tmax [1, 7] was 1.69 h and the bioavailability [1, 7] was 24.5 ± 1.1%. The half-life [1, 7] was 1060 ± 417 min and the “hydrolysis in human plasma” value [2] was “cleaved in the plasma to produce 2,4-DNP at a slow rate”.
